IC50 and GI50 data for 40 molecules are collected here from patent publication US8080657B2, “Compounds of reverse turn mimetics and the use thereof” (Choongwae Pharma Corporation, priority 2008, dated 2011).

In one experiment the target is T1, cDNA-expressed human hepatic CYP3A4 (Homo sapiens, UniProt P08684).
T1 construct: purchased BD Gentest 456202
T1 sequence (P08684 whole entry): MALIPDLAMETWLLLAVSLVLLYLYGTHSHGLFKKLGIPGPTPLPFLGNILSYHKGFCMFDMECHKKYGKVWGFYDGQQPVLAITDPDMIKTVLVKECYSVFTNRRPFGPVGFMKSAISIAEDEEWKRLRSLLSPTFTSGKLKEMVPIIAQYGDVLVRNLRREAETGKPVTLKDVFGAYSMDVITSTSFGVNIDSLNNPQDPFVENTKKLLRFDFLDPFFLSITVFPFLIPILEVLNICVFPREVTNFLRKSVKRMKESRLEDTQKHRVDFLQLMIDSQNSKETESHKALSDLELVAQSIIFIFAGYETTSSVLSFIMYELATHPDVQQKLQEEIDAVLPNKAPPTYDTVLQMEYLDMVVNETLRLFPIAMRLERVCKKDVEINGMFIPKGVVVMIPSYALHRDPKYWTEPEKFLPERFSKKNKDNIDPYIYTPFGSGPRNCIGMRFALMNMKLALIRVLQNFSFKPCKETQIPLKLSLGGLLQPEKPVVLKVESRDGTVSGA
The experiment can be described thus: P450 CYP3A4 inhibitory activity screening (BFC substrate, fluorescence). Format: biochemical. The note with it: human CYP3A4 supersome, substrate BFC, 10 min incubation at 37° C.; read-out: IC50 values of Compounds against CYP3A4 activity. As to the method: P450 CYP3A4 Inhibitory Activity Screening
Assay was conducted in a 200 μL volume in 96-well microtiter plates using cDNA-expressed human hepatic CYP3A4 (supersome, BD Gentest™ #456202). 7-Benzyloxy-4-trifluoromethyl-coumarin (BFC) was used as a substrate for CYP3A4. Test articles and substrate BFC were dissolved in 100% acetonitrile. The final volume of acetonitrile in the incubation mixture was less than 1% (volume/volume). Potassium phosphate buffer (pH 7.4, final concentration 0.1 M), MgCl2 (final concentration 8.3 mM), EDTA (final concentration 1.67 mM), a test article stock solution, a CYP3A4 supersome and NADPH (final concentration 0.25 mM) were added to each well. The reaction was initiated by the addition of substrate (BFC, final concentration 30 µM) after a 10 min pre-incubation at 37° C. After 10 min incubation at 37° C., the reaction was terminated by the addition of 75 μL of acetonitrile:0.5 M Tris-base=4:1 (volume/volume). Thereafter, Fluorescent signal was measured using a fluorometer. BFC metabolite, 7-hydroxy-4-trifluoromethyl-coumarin, was measured using an excitation wavelength of 409 nm and an emission wavelength of 530 nm.
Regarding `C=CCN1CC(=O)N2[C@@H](Cc3ccc(O)cc3)C(=O)N(Cc3cccc(C(=O)NCCOC)c3)C[C@@H]2N1C(=O)NCc1ccccc1` [Compound B], the IC50 is 34600 nM.

The test system of another experiment is Wnt signaling. Kind of experiment: TopFlash reporter gene bioassay in SW480 cells. In kind it is cell-based. The note with it: Homo sapiens, SW480, TopFlash reporter gene assay, inhibition of Wnt signaling; read-out: RGA, IC50 (μM) TopF.
`C=CCN1CC(=O)N2[C@@H](Cc3ccc(O)cc3)C(=O)N(Cc3cccc(NC(=O)OC)c3)C[C@@H]2N1C(=O)NCc1ccccc1` [compound 5]: the IC50 turned out to be 0.16 ± 0.08 µM.

In a further experiment the test system is MV-4-11 cells. Kind of experiment: Cell growth inhibition assay on AML cancer cells (CellTiter 96). Format: cell-based. The note with it: Homo sapiens, MV4-11; MV-4-11 cells, 72 hours; read-out: GI50, cell growth inhibition of MV-4-11 AML cancer cells. As to the method:
The lower GI50 value means the higher inhibition activity.
Cell Growth Inhibition Activity on AML Cancer Cells (Cell Growth Inhibition Assay)
Cell growth Inhibition assay was performed to investigate the rate of inhibition of cell proliferation by the test compounds. MV-4-11 (human, Acute Myeloid Leukemia cell line) cells were cultured in Iscove's modified Dulbecco's medium (IMDM) including 10% fetal bovine serum (FBS), 1× penicillin/streptomycin (10,000 units/ml Penicillin, […] Streptomycin in 0.85% NaCl). MV-4-11 cells were harvested with IMDM medium and 5×10^4 cells/well were transferred to each well of 96 well culture plates (Nunc, #167008). The test compounds were treated with the serial dilution and duplicated for each concentration. For the serial dilution, the test compounds were repeatedly diluted with the same volume of media onto 96-well assay block (costar, #3956). After the dilution, each compound was added to each well. The background absorbance was also measured during the test compounds treatment by adding the IMDM media in replacement of test compound to the negative control plate. The plates were incubated for 3 days (72 hours) at 37° C. in the humidified incubator containing 5% CO2. On the last day, 20 μL of CellTiter 96 Aqueous One Solution (Promega #G3581) was added to the culture in each well and the plates were incubated for a few hours at 37° C. in the humidified incubator containing 5% CO2. After the incubation, the absorbance of each cell was measured at 490 nm using an EnVision (Perkinelmer, USA). The GI50 values were calculated using a Prism 3.0 program.
For `C=CCN1CC(=O)N2[C@@H](Cc3ccc(O)cc3)C(=O)N(Cc3cccc(C(=O)NCCOC)c3)C[C@@H]2N1C(=O)NCc1ccccc1` [Compound B], the GI50 came out at 188 nM.

The experiment is the same for the next values; noted with them: Homo sapiens, MV4-11; cell growth inhibition on AML cancer cells, MV-4-11; read-out: MV-4-11, GI50.
In the case of `C=CCN1CC(=O)N2[C@@H](Cc3ccc(O)cc3)C(=O)N(Cc3cccc(C(=O)NCC4CCCCC4)c3)C[C@@H]2N1C(=O)NCc1ccccc1` [compound 39], the GI50 came to 960 nM.

With `C=CCN1CC(=O)N2[C@@H](Cc3ccc(O)cc3)C(=O)N(Cc3cccc(C(=O)NCCC)c3)C[C@@H]2N1C(=O)NCc1ccccc1` [compound 37], the GI50 is 240 nM.

For the molecule `C=CCN1CC(=O)N2[C@@H](Cc3ccc(O)cc3)C(=O)N(Cc3cccc(NC(=O)OC)c3)C[C@@H]2N1C(=O)NCc1ccccc1` [compound 5], the GI50 was 50 nM.

Regarding `C=CCN1CC(=O)N2[C@@H](Cc3ccc(O)cc3)C(=O)N(Cc3ccc(OC)c(-c4ccncc4)c3)C[C@@H]2N1C(=O)NCc1ccccc1` [compound 20], the GI50 amounted to 2240 nM.

In the case of `C=CCN1CC(=O)N2[C@@H](Cc3ccc(O)cc3)C(=O)N(Cc3cccc4c3ncn4CC(N)=O)C[C@@H]2N1C(=O)NCc1ccccc1` [compound 1], the 50% growth inhibitory concentration (GI50) was determined as 190 nM.

Turning to `C=CCN1CC(=O)N2[C@@H](Cc3ccc(O)cc3)C(=O)N(Cc3ccc(F)c(-c4cccnc4)c3)C[C@@H]2N1C(=O)NCc1ccccc1` [compound 25], the 50% growth inhibitory concentration (GI50) came to 240 nM.

`C=CCN1CC(=O)N2[C@@H](Cc3ccc(O)cc3)C(=O)N(Cc3ccc(OC)cc3F)C[C@@H]2N1C(=O)NCc1ccccc1` [compound 10]: the GI50 stood at 1320 nM.

As for `C=CCN1CC(=O)N2[C@@H](Cc3ccc(O)cc3)C(=O)N(Cc3cccc(C(=O)NOC)c3)C[C@@H]2N1C(=O)NCc1ccccc1` [compound 18], the GI50 was determined as 360 nM.

Turning to `C=CCN1CC(=O)N2[C@@H](Cc3ccc(O)cc3)C(=O)N(Cc3ccccc3-n3cnnn3)C[C@@H]2N1C(=O)NCc1ccccc1` [compound 28], the GI50 amounted to 1350 nM.

As to `C=CCN1CC(=O)N2[C@@H](Cc3ccc(O)cc3)C(=O)N(Cc3cccc(-c4ncc[nH]4)c3)C[C@@H]2N1C(=O)NCc1ccccc1` [compound 35], the GI50 was determined as 1120 nM.

On to `C=CCN1CC(=O)N2[C@@H](Cc3ccc(O)cc3)C(=O)N(Cc3cccc4c(C(C)=O)c[nH]c34)C[C@@H]2N1C(=O)NCc1ccccc1` [compound 6], for which the GI50 is 40 nM.

Turning to `C=CCN1CC(=O)N2[C@@H](Cc3ccc(O)cc3)C(=O)N(Cc3cccc(-c4cccnc4OC)c3)C[C@@H]2N1C(=O)NCc1ccccc1` [compound 22], the GI50 was determined as 740 nM.

With `C=CCN1CC(=O)N2[C@@H](Cc3ccc(O)cc3)C(=O)N(Cc3cccc(C(=O)NNC(=O)OC(C)(C)C)c3)C[C@@H]2N1C(=O)NCc1ccccc1` [compound 23], the GI50 turned out to be 960 nM.

Regarding `C=CCN1CC(=O)N2[C@@H](Cc3ccc(O)cc3)C(=O)N(Cc3cccc(C(N)=O)c3[N+](=O)[O-])C[C@@H]2N1C(=O)NCc1ccccc1` [compound 31], the 50% growth inhibitory concentration (GI50) came to 5750 nM.

For `C=CCN1CC(=O)N2[C@@H](Cc3ccc(O)cc3)C(=O)N(Cc3cccc(C(=O)N4CCCC4)c3)C[C@@H]2N1C(=O)NCc1ccccc1` [compound 27], the GI50 was found to be 1110 nM.

On to `C=CCN1CC(=O)N2[C@@H](Cc3ccc(O)cc3)C(=O)N(Cc3cccc(C(=O)NN)c3)C[C@@H]2N1C(=O)NCc1ccccc1` [compound 24], for which the GI50 worked out at 2030 nM.

Take `C=CCN1CC(=O)N2[C@@H](Cc3ccc(O)cc3)C(=O)N(Cc3cccc(C(=O)NCCO)c3)C[C@@H]2N1C(=O)NCc1ccccc1` [compound 19]: the GI50 turned out to be 450 nM.

With `C=CCN1CC(=O)N2[C@@H](Cc3ccc(O)cc3)C(=O)N(Cc3cccc4c3OC(F)(F)O4)C[C@@H]2N1C(=O)NCc1ccccc1` [compound 2], the concentration for 50% growth inhibition (GI50) was found to be 600 nM.

Turning to `C=CCN1CC(=O)N2[C@@H](Cc3ccc(O)cc3)C(=O)N(Cc3cccc(C(=O)NCCCOCCCC)c3)C[C@@H]2N1C(=O)NCc1ccccc1` [compound 33], the GI50 was determined as 650 nM.

Turning to `C=CCN1CC(=O)N2[C@@H](Cc3ccc(O)cc3)C(=O)N(Cc3cccc(C(=O)Nc4cc[nH]n4)c3)C[C@@H]2N1C(=O)NCc1ccccc1` [compound 41], the GI50 amounted to 1560 nM.

In the case of `C=CCN1CC(=O)N2[C@@H](Cc3ccc(O)cc3)C(=O)N(Cc3cccc(C(=O)NC)n3)C[C@@H]2N1C(=O)NCc1ccccc1` [compound 44], the GI50 was found to be 550 nM.

Take `C=CCN1CC(=O)N2[C@@H](Cc3ccc(O)cc3)C(=O)N(Cc3cccc(C(=O)NC)c3)C[C@@H]2N1C(=O)NCc1ccccc1` [compound 29]: the GI50 worked out at 390 nM.

Consider `C=CCOc1ccc(CN2C[C@H]3N(C(=O)CN(CC=C)N3C(=O)NCc3ccccc3)[C@@H](Cc3ccc(O)cc3)C2=O)cc1` [compound 12], for which the GI50 came out at 2990 nM.

Regarding `C=CCN1CC(=O)N2[C@@H](Cc3ccc(O)cc3)C(=O)N(Cc3csc4ccccc34)C[C@@H]2N1C(=O)NCc1ccccc1` [compound 3], the GI50 was found to be 180 nM.

Take `C=CCN1CC(=O)N2[C@@H](Cc3ccc(O)cc3)C(=O)N(Cc3ccccc3N3CCCC3)C[C@@H]2N1C(=O)NCc1ccccc1` [compound 13]: the GI50 amounted to 2010 nM.

On to `C=CCN1CC(=O)N2[C@@H](Cc3ccc(O)cc3)C(=O)N(Cc3cccc(C(=O)NCC4CC4)c3)C[C@@H]2N1C(=O)NCc1ccccc1` [compound 40], for which the GI50 worked out at 270 nM.

For `C=CCN1CC(=O)N2[C@@H](Cc3ccc(O)cc3)C(=O)N(Cc3cccc(C(N)=O)n3)C[C@@H]2N1C(=O)NCc1ccccc1` [compound 43], the GI50 is 310 nM.

Regarding `C=CCN1CC(=O)N2[C@@H](Cc3ccc(O)cc3)C(=O)N(Cc3ccc(OC)c(Cl)c3)C[C@@H]2N1C(=O)NCc1ccccc1` [compound 11], the GI50 was 1970 nM.

Regarding `C=CCN1CC(=O)N2[C@@H](Cc3ccc(O)cc3)C(=O)N(Cc3cccc(C(=O)N(C)C)n3)C[C@@H]2N1C(=O)NCc1ccccc1` [compound 45], the GI50 was found to be 2790 nM.

As to `C=CCN1CC(=O)N2[C@@H](Cc3ccc(O)cc3)C(=O)N(Cc3ccccc3SC)C[C@@H]2N1C(=O)NCc1ccccc1` [compound 14], the 50% growth inhibitory concentration (GI50) was determined as 160 nM.

Consider `C=CCN1CC(=O)N2[C@@H](Cc3ccc(O)cc3)C(=O)N(Cc3ccc(CP(=O)(O)O)cc3)C[C@@H]2N1C(=O)NCc1ccccc1` [compound 32], for which the GI50 is greater than 50000 nM.

In the case of `C=CCN1CC(=O)N2[C@@H](Cc3ccc(O)cc3)C(=O)N(Cc3cccc(C(=O)OCC)n3)C[C@@H]2N1C(=O)NCc1ccccc1` [compound 42], the GI50 turned out to be 640 nM.

For the molecule `C=CCN1CC(=O)N2[C@@H](Cc3ccc(O)cc3)C(=O)N(Cc3cccc(OC)c3OC)C[C@@H]2N1C(=O)NCc1ccccc1` [compound 15], the GI50 stood at 2140 nM.

For the molecule `C=CCN1CC(=O)N2[C@@H](Cc3ccc(O)cc3)C(=O)N(Cc3cccc(C(N)=O)c3)C[C@@H]2N1C(=O)NCc1ccccc1` [compound 17], the 50% growth inhibitory concentration (GI50) turned out to be 360 nM.

Regarding `C=CCN1CC(=O)N2[C@@H](Cc3ccc(O)cc3)C(=O)N(Cc3cccc(Cl)c3N(C)C)C[C@@H]2N1C(=O)NCc1ccccc1` [compound 34], the GI50 turned out to be 1250 nM.

Regarding `C=CCN1CC(=O)N2[C@@H](Cc3ccc(O)cc3)C(=O)N(Cc3ccc(F)c(Br)c3)C[C@@H]2N1C(=O)NCc1ccccc1` [compound 21], the GI50 worked out at 300 nM.

As for `C=CCN1CC(=O)N2[C@@H](Cc3ccc(O)cc3)C(=O)N(Cc3cccc(C(C)(C)C)c3OC)C[C@@H]2N1C(=O)NCc1ccccc1` [compound 16], the GI50 was found to be 630 nM.

Regarding `C=CCN1CC(=O)N2[C@@H](Cc3ccc(O)cc3)C(=O)N(Cc3cccc(C(=O)N(C)C)c3)C[C@@H]2N1C(=O)NCc1ccccc1` [compound 30], the GI50 stood at 820 nM.

`C=CCN1CC(=O)N2[C@@H](Cc3ccc(O)cc3)C(=O)N(Cc3cccc(C(=O)N4CCCCC4)c3)C[C@@H]2N1C(=O)NCc1ccccc1` [compound 26]: the GI50 stood at 780 nM.
